Tests used:
Cyclin E/CDK2 = target: T1, Cyclin E/CDK2 (Homo sapiens, UniProt P24941); experiment: CDK2 FlashPlate Assay (Rb phosphorylation, 33P-ATP); format: biochemical; details: for IC50: recombinant human Cyclin E/CDK2, Rb substrate, 25 minutes at room temperature; for inhibition at 0.5 µM: Concentration 0.5 µM
T1 construct: made in house; host or cells: insect cells
Description: To determine inhibition of CDK2 activity, purified recombinant retinoblastoma (Rb) protein was coated on 96 well FlashPlates (New England Nuclear, Boston, MA). Rb is a natural substrate for phosphorylation by CDK2 (Herwig and Strauss Eurr. J. Biochem., Vol. 246 (1997) pp. 581-601 and references therein). Recombinant active human Cyclin E/CDK2 complexes were partially purified from extracts of insect cells. The active Cyclin E/CDK2 was added to the Rb-coated FlashPlates along with ^33P-ATP and dilutions of test compounds. Plates were incubated for 25 minutes at room temperature with shaking, then washed and counted in the Topcount scintillation counter (Packard Instrument Co., Downers Grove, IL). Dilutions of test compounds were tested in duplicate in each assay. The percent inhibition of Rb phosphorylation, which is a measure of the inhibition of CDK2 activity, was determined according to the following formula: [formula] where "test compound" refers to the average counts per minute of the test duplicates, "nonspecific" refers to the average counts per minute when no Cyclin E/CDK2 was added, and "total" refers to the average counts per minute when no compound was added.

[1] = tested on: estrogen receptor negative epithelial breast carcinoma line (MDA-MB-435); experiment: Cell-based antiproliferative assay (MTT), MDA-MB-435; details: Homo sapiens, MDA-MB-435, 120 h, 2000 cells per well, 5 days post addition of test compound, read-out: MDA-MB435 IC50
Description: The estrogen receptor negative epithelial breast carcinoma line (MDA-MB-435) was purchased from American Type Cell Culture Collection (ATCC; Rockville, MD) and was grown in the medium recommended by ATCC. For analysis of the effect of the test compounds on growth of these cells, the cells were plated at 2000 cells per well in a 96-well tissue culture plate, and were incubated overnight at 37°C with 5% CO2. The next day, the test compounds were dissolved in 100% dimethyl sulfoxide (DMSO) to yield a 10 mM stock solution. Each compound was diluted with sterile medium to 1 mM in a sufficient quantity to yield a final concentration of 120 µM. The compounds were then serially diluted in medium with 1.2% DMSO. […] The plates were returned to the incubator, and 5 days post addition of test compound, were analyzed as described below.
3-(4,5-Dimethylthiazole-2-yl)-2,5-diphenyl-2H-tetrazolium bromide (thiazolyl blue; MTT) was added to each well to yield a final concentration of 1 mg/ml. […] Absorbencies were read in a microtiter plate reader (Molecular Dynamics) at a wavelength of 570 nm with a 650 nm reference. Percent inhibition was calculated by subtracting the absorbance of the blank (no cell) wells from all wells, then subtracting the division of the average absorbance of each test duplicate by the average of the controls from 1.00. […]

[2] = tested on: colon carcinoma line SW480; experiment: Cell-based antiproliferative assay (MTT), SW480; details: Homo sapiens, SW480, 96 h, 1000 cells per well, 4 days post addition of test compound

IC50 (Cyclin E/CDK2)	IC50 [1]	IC50 [2]	Structure (SMILES)	inhibition at 0.5 µM (Cyclin E/CDK2)
< 3.5 µM	< 3.5 µM	< 1 µM	COc1cc[nH]c1/C=C1\C(=O)Nc2ccc3[nH]c(C)nc3c21 [P, (Z)-8-[(3-Methoxy-1H-pyrrol-2-yl)methylene]-2-methyl-3,6,7,8-tetrahydro-pyrrolo-[3,2-e]benzimidazol-7-one]	
< 3.5 µM			COc1cc[nH]c1/C=C1\C(=O)Nc2ccc3[nH]c(-c4ccccc4O)nc3c21 [S, (Z)-2-(2-Hydroxyphenyl)-8-[(3-methoxy-1H-pyrrol-2-yl)methylene]-3,6,7,8-tetrahydro-pyrrolo[3;2-e]benzimidazol-7-one]	

Further lines, the compound ahead of its results:

Structure (SMILES)	IC50 (Cyclin E/CDK2)	IC50 [1]	IC50 [2]	inhibition at 0.5 µM (Cyclin E/CDK2)
Cc1nc[nH]c1/C=C1\C(=O)Nc2ccc([N+](=O)[O-])c(N=[N+]=[N-])c21 [PP, (Z)-4-Azido-1,3-dihydro-3-[(4-methyl-1H-imidazol-5-yl)methylene]-5-nitro-2H-indol-2-one]	< 3.5 µM			
COc1cc[nH]c1/C=C1\C(=O)Nc2ccc3[nH]c(NCc4ccc5c(c4)OCO5)nc3c21 [VV, (Z)-2-[N-(1,3-Benzodioxol-5-yl)methylamino]-8-[(3-methoxy-1H-pyrrol-2-yl)methylene]-3,6,7,8-tetrahydro-pyrrolo[3,2-e]-benzimidazol-7-one]				< 50%
COc1cc[nH]c1/C=C1\C(=O)Nc2ccc3[nH]c(NCc4cccc5ccccc45)nc3c21 [WW, (Z)-8-[(3-Methoxy-1H-pyrrol-2-yl)methylene]-2-[N-(1-naphthalenyl)methylamino]-3,6,7,8-tetrahydro-pyrrolo[3,2-e]-benzimidazol-7-one]				< 50%

— patent publication EP1149106B1, “4,5-AZOLO-OXINDOLES” (F. HOFFMANN-LA ROCHE AG, priority 1998, dated 2000)
